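Test compounds were applied to cells in 96-well plates for 48 hours at 5 doses. TGI is the concentration that stops growth completely.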
Legend:
Assay in all cases: NCI tumour cell line growth inhibition, 48 h
[1] = test system: HCT-15 colon
[2] = test system: NCI-H23 lung
[3] = test system: PC-3 prostate
[4] = test system: NCI/ADR-RES ovarian
[5] = test system: UACC-257 melanoma
[6] = test system: MOLT-4 leukemia
[7] = test system: LOX IMVI melanoma
[8] = test system: HT29 colon
[9] = test system: SK-MEL-2 melanoma
[10] = test system: COLO 205 colon
[11] = test system: EKVX NSCLC
[12] = test system: MDA-N
[13] = test system: RPMI-8226 leukemia
[14] = test system: SW-620 colon
[15] = test system: HOP-92 NSCLC
[16] = test system: OVCAR-4 ovarian
[17] = test system: SF-539 CNS
[18] = test system: MDA-MB-435
[19] = test system: DU-145 prostate
[20] = test system: SNB-19 CNS
[21] = test system: SN12C renal
[22] = test system: BT-549 breast
[23] = test system: KM12 colon
[24] = test system: M14 melanoma
[25] = test system: CCRF-CEM leukemia
[26] = test system: NCI-H460 lung
[27] = test system: K-562 leukemia
[28] = test system: SK-MEL-28 melanoma
[29] = test system: IGROV1 ovarian
[30] = test system: SNB-75 CNS
[31] = test system: SK-MEL-5 melanoma
[32] = test system: CAKI-1 renal
[33] = test system: U251 CNS
[34] = test system: UACC-62 melanoma
[35] = test system: 786-0 renal
[36] = test system: SF-268 CNS
[37] = test system: ACHN renal
[38] = test system: HL-60(TB) leukemia
[39] = test system: TK-10 renal
[40] = test system: NCI-H226 lung
[41] = test system: OVCAR-5 ovarian
[42] = test system: HCC-2998 colon
[43] = test system: OVCAR-3 ovarian
[44] = test system: HCT-116 colon
[45] = test system: MCF7 breast
[46] = test system: A549 NSCLC
[47] = test system: SF-295 CNS
[48] = test system: OVCAR-8 ovarian
[49] = test system: HOP-62 NSCLC
[50] = test system: UO-31 renal
[51] = test system: SK-OV-3 ovarian
[52] = test system: NCI-H522 lung
[53] = test system: MDA-MB-231 breast
[54] = test system: SR leukemia
[55] = test system: T-47D breast
[56] = test system: A498 renal
[57] = test system: HS 578T breast

COC(=O)[C@@H]1O[C@]12C(CO[Si](C)(C)C(C)(C)C)OC(n1ccc(=O)[nH]c1=O)C2O[Si](C)(C)C(C)(C)C (stereo not given in full)
TGI [1]: > 100 µM
TGI [2]: 54.5 µM
TGI [3]: 68.1 µM
TGI [4]: > 100 µM
TGI [5]: 57.5 µM
TGI [6]: 76.5 µM
TGI [7]: 42.5 µM
TGI [8]: 43.4 µM
TGI [9]: 33.2 µM
TGI [10]: 69.7 µM
TGI [11]: 62.6 µM
TGI [12]: > 100 µM
TGI [13]: > 100 µM
TGI [14]: > 100 µM
TGI [15]: 88.1 µM
TGI [16]: > 100 µM
TGI [17]: 38 µM
TGI [18]: 58.7 µM
TGI [19]: 61.1 µM
TGI [20]: > 100 µM
TGI [21]: 85.7 µM
TGI [22]: 47.7 µM
TGI [23]: 77.9 µM
TGI [24]: 30.7 µM
TGI [25]: > 100 µM
TGI [26]: > 100 µM
TGI [27]: > 100 µM
TGI [28]: 59 µM
TGI [29]: 46.1 µM
TGI [30]: > 100 µM
TGI [31]: 51.6 µM
TGI [32]: 72 µM
TGI [33]: > 100 µM
TGI [34]: 72.7 µM
TGI [35]: > 100 µM
TGI [36]: > 100 µM
TGI [37]: 54.1 µM
TGI [38]: 62.6 µM
TGI [39]: 83.9 µM
TGI [40]: 30.7 µM
TGI [41]: 77.5 µM
TGI [42]: > 100 µM
TGI [43]: 30.8 µM
TGI [44]: > 100 µM
TGI [45]: 37.2 µM
TGI [46]: > 100 µM
TGI [47]: 57.7 µM
TGI [48]: > 100 µM
TGI [49]: 48 µM
TGI [50]: 45.5 µM
TGI [51]: > 100 µM
TGI [52]: 45.4 µM
TGI [53]: > 100 µM

CCc1cc(-c2nsc(=O)o2)c(S(=O)(=O)CC)s1
TGI [1]: > 100 µM
TGI [2]: > 100 µM
TGI [3]: 85.1 µM
TGI [4]: > 100 µM
TGI [7]: > 100 µM
TGI [8]: > 100 µM
TGI [9]: > 100 µM
TGI [54]: > 100 µM
TGI [10]: > 100 µM
TGI [11]: > 100 µM
TGI [12]: > 100 µM
TGI [13]: > 100 µM
TGI [55]: > 100 µM
TGI [14]: > 100 µM
TGI [15]: > 100 µM
TGI [16]: > 100 µM
TGI [56]: > 100 µM
TGI [17]: > 100 µM
TGI [18]: > 100 µM
TGI [19]: > 100 µM
TGI [20]: > 100 µM
TGI [21]: > 100 µM
TGI [23]: > 100 µM
TGI [24]: > 100 µM
TGI [25]: > 100 µM
TGI [26]: > 100 µM
TGI [27]: > 100 µM
TGI [28]: > 100 µM
TGI [29]: > 100 µM
TGI [30]: > 100 µM
TGI [31]: > 100 µM
TGI [32]: > 100 µM
TGI [33]: > 100 µM
TGI [35]: > 100 µM
TGI [36]: > 100 µM
TGI [37]: > 100 µM
TGI [38]: 12 µM
TGI [39]: > 100 µM
TGI [40]: > 100 µM
TGI [57]: > 100 µM
TGI [41]: > 100 µM
TGI [42]: > 100 µM
TGI [43]: > 100 µM
TGI [44]: > 100 µM
TGI [45]: > 100 µM
TGI [46]: > 100 µM
TGI [47]: > 100 µM
TGI [48]: > 100 µM
TGI [49]: > 100 µM
TGI [50]: > 100 µM
TGI [51]: > 100 µM
TGI [52]: 57.2 µM
